According to patent publication US20150118179A1, “BIOCIDAL COMPOUNDS AND METHODS FOR USING SAME” (UNIVERSITY OF MANITOBA, priority 2012, published 2015):
Where two headings read alike, the source gives them in different places.

Key:
[1] = system: methicillin resistant Staphylococcus aureus (MRSA 40065); type: cell-based; details: inoculum 10^6 cfu/ml; for Bacteria Reduction log10 / Bacteria reduction %: [Cl+] 15 ppm
Description: (§1) Pseudomonas aeruginosa (P. aeruginosa) (#73104, Gram-negative) and Staphylococcus aureus (MRSA) (#40065, Gram-positive) were used as the model microorganism to challenge the antibacterial function of the compounds. It should be noticed that both P. aeruginosa and MRSA are biosafety level 2 microorganisms and potentially biohazardous, therefore the following antibacterial assessments were carried out in a Biological Safety Level 2 cabinet and safety precautions were strictly followed.
(§2) Tryptone Soya agar plates were used as platforms for bacterial cell growth and were prepared following the instructions on the bottle (CM 0131, OXOID). The prepared agar was kept at 65° C. after being autoclaved and the resulting agar plates were stored in fridge at 3-4° C. All glassware and related materials were subjected to autoclave or disinfection with 70% ethanol prior to use.
(§3) Several colonies of each bacteria type were suspended in broth solutions (cation-supplemented Mueller-Hinton broth for P. aeruginosa and tryptic soy broth for MRSA) whose concentrations were equivalent to a 0.5 McFarland standard (1×10^8 cfu/ml). This suspension was then diluted 1:100 and 20 μL of the diluted suspension was further diluted in 60 ml of cation-supplemented Mueller-Hinton broth or tryptic soy broth. Then the prepared bacteria inoculums were incubated overnight at 37° C. to obtain logarithmic-phase cultures. For each microbial study, 0.2 ml (0.02 ml for P. aeruginosa) of the cell suspension was diluted in 19.8 mL (19.98 ml for P. aeruginosa) of phosphate-buffered Saline (PBS, 0.1 M Sodium phosphate monobasic, 0.1 M Sodium phosphate dibasic, pH 7.4) to give a cell concentration of 10^6-10^7 cfu/mL (10^5 cfu/ml for P. aeruginosa). 30 μL of each synthesized compound solution (0.28 N stock solution) were added into the cell suspension to achieve a [Cl^+] of 15 ppm and start timing instantly. The mixture was vortexed several times during the reaction. After contact for the desired time intervals, 1.0 ml cell suspension was withdrawn and added to 1.0 ml of 0.02 N sodium thiosulfate and/or Letheen (1% lecithin, 10% peptone and 0.5% tween 80 dissolved in PBS at pH 7.4) to quench the bactericidal effect. The quenched suspension was then serially diluted (10 times less concentrated than the previous one) and 100 μL of each dilution was placed onto agar plates. The same procedure was applied to the blanks as controls with the same matrices but with no synthesized compounds added. Bacterial colonies on the agar plates were enumerated after being incubated at 37° C. for 22 hours.
(§4) Percentage reduction of bacteria (%)=(A−B)/A×100
(§5) Where A is the number of bacterial colonies in the control (cfu/mL), and B is the number of bacteria colonies under the effect of the synthesized compounds.

[2] = system: P. aeruginosa (73104); test: Antibacterial assessment in PBS suspension (Example 19); type: cell-based, Pseudomonas aeruginosa; details: inoculum 10^5 cfu/ml; for Bacteria Reduction log10 / Bacteria reduction %: [Cl+] 15 ppm
Description: as §1, §2, §3, §4, §5

Structure (SMILES) | Bacteria Reduction log10 ([1]; Table 10, contact 1 min) [log10] | Bacteria reduction % ([1]; Table 10, contact 1 min) [%] | Bacteria Reduction log10 ([1]; Table 10, contact 3 min) [log10] | Bacteria reduction % ([1]; Table 10, contact 3 min) [%] | Bacteria Reduction log10 ([1]; Table 10, contact 5 min) [log10] | Bacteria reduction % ([1]; Table 10, contact 5 min) | Bacteria Reduction log10 ([1]; Table 10, contact 10 min) [log10] | Bacteria reduction % ([1]; Table 10, contact 10 min) [%] | Bacteria Reduction log10 ([1]; Table 10, contact 60 min) [log10] | Bacteria reduction % ([1]; Table 10, contact 60 min) [%] | Bacteria Reduction log10 ([2]; Table 10, contact 10 min) [log10] | Bacteria reduction % ([2]; Table 10, contact 10 min) [%] | Bacteria Reduction log10 ([2]; Table 10, contact 20 min) [log10] | Bacteria reduction % ([2]; Table 10, contact 20 min) [%] | Bacteria Reduction log10 ([2]; Table 10, contact 30 min) [log10] | Bacteria reduction % ([2]; Table 10, contact 30 min) [%] | Bacteria Reduction log10 ([2]; Table 10, contact 60 min) [log10] | Bacteria reduction % ([2]; Table 10, contact 60 min) [%] | Bacteria Reduction log10 ([2]; Table 10, contact 3 min) [log10] | Bacteria reduction % ([2]; Table 10, contact 3 min) [%] | other results
CC1(C)C(=O)N(CC[N+](C)(C)C)C(=O)N1Cl.[Cl-] [Compound 10] | 0.74 | 81.7 | 0.63 | 76.7 | 0.50 | 68.2% | 0.81 | 84.5 | 1.33 | 95.3 | 0.35 | 55.1 | 5.27 | 100 | 5.27 | 100 | 5.27 | 100 | – | – | –
CCCCCCCCCCCC[N+](C)(C)CCCN1C(=O)NC(C)(C)C1=O [Compound 7] | 0 | 0 | 0 | 0 | 0.85 | 85.6. % | 2.59 | 99.7 | 6.26 | 100 | 5.80 | 100 | 5.80 | 100 | 5.80 | 100 | 5.80 | 100 | 5.80 | 100 | –
CCCCCC[N+](C)(C)CCCN1C(=O)N(Cl)C(C)(C)C1=O.[Cl-] [Compound 6] | 0.66 | 78.3 | 0.67 | 78.9 | 0.76 | 82.8% | 1.00 | 89.3 | 2.11 | 99.2 | 0.30 | 49.3 | 0.50 | 68.6 | 1.52 | 97.0 | 5.80 | 100 | 0.24 | 42.7 | –
CCCCCCCCCCCC[N+](C)(C)CCCN1C(=O)N(Cl)C(C)(C)C1=O.[Cl-] [Compound 8] | 0.13 | 26.1 | 6.26 | 100 | 6.26 | 100% | 6.26 | 100 | 6.26 | 100 | 5.80 | 100 | 5.80 | 100 | 5.80 | 21.4 | 5.80 | 100 | 5.80 | 100 | –
CCCCCC[N+](C)(C)CCCN1C(=O)NC(C)(C)C1=O [Compound 5] | – | – | – | – | – | – | – | – | – | – | – | – | – | – | – | – | – | – | – | – | Bactericidal effect (bacteria reduction at various contact time) ([1]; Table 10, contact 1-60 min): No bactericidal effect; Bactericidal effect (bacteria reduction at various contact time) ([2]; Table 10, contact 3-60 min): No bactericidal effect
